# How the values were obtained:
# E. coli K12 PBP3 = target: T1, E. coli K12 PBP3 (Escherichia coli, UniProt P0AD68); experiment: biochemical; type: binding
# T1 construct: made in house
# Outline: (§1)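 A. baumannii PBP2 (2.5 μM) and PBP3 (0.2 μM) were run in 25 mM Tris pH 8.0 buffer with Tween 20; E. coli PBP3 (1.5 μM) and N. gonorrhoeae PBP2 ([…]) in 50 mM Hepes pH 8.0 buffer.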
# P. aeruginosa PBP3 = target: T2, P. aeruginosa PBP3 (Pseudomonas aeruginosa, UniProt G3XD46); experiment: Bocillin-FL fluorescence polarization competition binding assay, P. aeruginosa PBP3; conditions: fluorescence polarization competition binding assay using Bocillin-FL
# T2 construct: made in house
# T2 sequence (G3XD46 whole entry): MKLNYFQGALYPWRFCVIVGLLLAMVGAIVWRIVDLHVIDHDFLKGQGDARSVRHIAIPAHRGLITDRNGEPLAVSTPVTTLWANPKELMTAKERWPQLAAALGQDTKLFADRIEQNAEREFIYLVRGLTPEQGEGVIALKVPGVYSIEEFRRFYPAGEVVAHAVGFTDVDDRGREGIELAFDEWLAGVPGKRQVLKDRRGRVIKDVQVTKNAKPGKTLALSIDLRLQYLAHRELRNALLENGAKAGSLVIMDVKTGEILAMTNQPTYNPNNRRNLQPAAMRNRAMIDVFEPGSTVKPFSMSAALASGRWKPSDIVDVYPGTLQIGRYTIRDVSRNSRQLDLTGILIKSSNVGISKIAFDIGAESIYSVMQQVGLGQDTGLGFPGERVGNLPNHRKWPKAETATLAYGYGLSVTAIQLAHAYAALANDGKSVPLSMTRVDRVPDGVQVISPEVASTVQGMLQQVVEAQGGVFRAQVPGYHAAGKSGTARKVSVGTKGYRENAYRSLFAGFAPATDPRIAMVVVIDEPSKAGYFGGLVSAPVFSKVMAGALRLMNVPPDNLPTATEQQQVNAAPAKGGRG
# Outline: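 Inhibitor competition with Bocillin-FL for P. aeruginosa PBP3 was followed by fluorescence polarization on a Cytation3 (BioTek) reader, using g-factor 0.96, 490 nm excitation and 520 nm emission. The enzyme was at 0.75 μM and the probe at 0.1 μM in Hepes/NaCl/glycerol buffer, 80 μl per well. FP was recorded immediately after probe addition for up to 60 minutes. Potency was expressed as EC50, the concentration that reduces bound probe by 50%.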
# N. gonorrhoeae PBP2 = target: T3, N. gonorrhoeae PBP2 (Neisseria gonorrhoeae, UniProt P08149); experiment: Bocillin-FL fluorescence polarization competition binding assay, N. gonorrhoeae PBP2; conditions: fluorescence polarization competition binding assay using Bocillin-FL; read-out: N. gonorrhoeae PBP2 Potency
# T3 construct: made in house
# T3 sequence (P08149 whole entry): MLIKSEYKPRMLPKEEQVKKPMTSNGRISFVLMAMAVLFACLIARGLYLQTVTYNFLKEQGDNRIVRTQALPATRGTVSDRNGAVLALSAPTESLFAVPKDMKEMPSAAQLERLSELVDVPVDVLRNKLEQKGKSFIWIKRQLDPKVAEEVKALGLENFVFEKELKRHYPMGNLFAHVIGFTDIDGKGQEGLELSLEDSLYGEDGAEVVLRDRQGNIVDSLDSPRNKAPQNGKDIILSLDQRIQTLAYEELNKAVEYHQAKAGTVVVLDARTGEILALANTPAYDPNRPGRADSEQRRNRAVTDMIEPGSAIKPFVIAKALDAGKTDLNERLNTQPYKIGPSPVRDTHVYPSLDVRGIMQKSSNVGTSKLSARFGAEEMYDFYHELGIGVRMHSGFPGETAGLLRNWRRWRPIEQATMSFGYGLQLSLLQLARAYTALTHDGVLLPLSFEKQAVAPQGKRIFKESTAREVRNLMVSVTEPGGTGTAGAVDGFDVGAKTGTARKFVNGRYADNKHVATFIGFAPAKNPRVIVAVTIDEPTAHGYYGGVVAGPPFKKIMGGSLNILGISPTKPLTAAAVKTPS
# Outline: as §1
# [1] = test system: N. gonorrhoeae ATCC 49226; experiment: Liquid broth MIC in Fastidious broth; type: cell-based; conditions: Neisseria gonorrhoeae, ATCC49226; N. gonorrhoeae strain ATCC 49226; Fastidious broth; read-out: Minimum Inhibitory Concentration, N. gonorrhoeae ATCC 49226
# Outline: (§2)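 Colonies were swabbed from chocolate agar after 24 h growth and standardised by optical density at 600 nm. Compounds were serially diluted twofold in Fastidious broth, and bacteria added to give 5×10^5 CFU/mL. After about 24 h at 36 °C in 5% CO2, the lowest concentration allowing under 10% growth was taken as MIC.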
# N. gonorrhoeae FA1090 = experiment: Liquid broth MIC in Fastidious broth; type: cell-based; conditions: Neisseria gonorrhoeae; N. gonorrhoeae strain FA1090; Fastidious broth; read-out: Minimum Inhibitory Concentration, N. gonorrhoeae FA1090
# Outline: as §2
# N. gonorrhoeae H041 = experiment: Liquid broth MIC in Fastidious broth; type: cell-based; conditions: Neisseria gonorrhoeae, H041, read-out: Minimum Inhibitory Concentration, N. gonorrhoeae H041
# Outline: (§3)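 Mosaic PBP2 producers; colonies from 24 h chocolate agar, saline suspension, OD600. Fastidious broth, 2-fold dilutions, 5×10^5 CFU/mL. ~24 h, 36 °C, 5% CO2; visual MIC, <10% growth cutoff.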
# N. gonorrhoeae WHO G = experiment: Liquid broth MIC in Fastidious broth; type: cell-based; conditions: Neisseria gonorrhoeae; N. gonorrhoeae strain WHO G; Fastidious broth; read-out: Minimum Inhibitory Concentration, N. gonorrhoeae WHO G
# Outline: as §2
# N. gonorrhoeae WHO K = experiment: Liquid broth MIC in Fastidious broth; type: cell-based; conditions: Neisseria gonorrhoeae, read-out: Minimum Inhibitory Concentration, N. gonorrhoeae WHO K
# Outline: as §3
# N. gonorrhoeae WHO Q = experiment: Liquid broth MIC in Fastidious broth; type: cell-based; conditions: Neisseria gonorrhoeae, read-out: Minimum Inhibitory Concentration, N. gonorrhoeae WHO Q
# Outline: as §3
# N. gonorrhoeae WHO Z = experiment: Liquid broth MIC in Fastidious broth; type: cell-based; conditions: Neisseria gonorrhoeae, read-out: Minimum Inhibitory Concentration, N. gonorrhoeae WHO Z
# Outline: as §3
# T1 sequence (P0AD68 1-577): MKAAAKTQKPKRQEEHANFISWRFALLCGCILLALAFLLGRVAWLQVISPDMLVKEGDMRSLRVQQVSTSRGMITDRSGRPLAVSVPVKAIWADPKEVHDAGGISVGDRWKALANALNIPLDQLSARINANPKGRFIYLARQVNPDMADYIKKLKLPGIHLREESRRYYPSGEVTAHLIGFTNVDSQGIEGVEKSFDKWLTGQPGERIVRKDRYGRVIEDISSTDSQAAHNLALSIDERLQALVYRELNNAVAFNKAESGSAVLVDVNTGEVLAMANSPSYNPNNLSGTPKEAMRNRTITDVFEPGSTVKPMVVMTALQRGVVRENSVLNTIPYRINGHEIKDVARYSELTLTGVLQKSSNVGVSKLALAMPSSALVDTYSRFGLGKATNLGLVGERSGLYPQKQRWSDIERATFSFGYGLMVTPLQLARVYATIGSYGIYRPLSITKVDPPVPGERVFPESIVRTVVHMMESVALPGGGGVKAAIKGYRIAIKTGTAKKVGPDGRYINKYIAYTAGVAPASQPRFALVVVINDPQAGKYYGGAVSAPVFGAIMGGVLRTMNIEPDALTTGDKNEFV
Structure (SMILES),EC50 (E. coli K12 PBP3) [µM],P. aeruginosa PBP3 Potency (P. aeruginosa PBP3),EC50 (N. gonorrhoeae PBP2) [µM],MIC [1] [µg/mL],MIC (N. gonorrhoeae FA1090) [µg/mL],MIC (N. gonorrhoeae H041) [µg/mL],MIC (N. gonorrhoeae WHO G) [µg/mL],MIC (N. gonorrhoeae WHO K) [µg/mL],MIC (N. gonorrhoeae WHO Q) [µg/mL],MIC (N. gonorrhoeae WHO Z) [µg/mL]
"CCN1CCN(C(=O)N[C@@H](C(=O)N[C@H]2Cc3cccc(C(=O)O)c3OB2O)c2ccc(C(=O)O)cc2Cl)C(=O)C1=O (single isomer, unassigned) [Example 151]",< 30,D (D represents a potency <10 μM),< 10,4 to 8,0.25 to 0.5,4 to 8,1 to 2,4 to 8,4 to 8,1 to 2
"CCN1CCN(C(=O)N[C@H](C(=O)N[C@H]2Cc3cccc(C(=O)O)c3OB2O)c2ccc(C(=O)O)cc2Cl)C(=O)C1=O (single isomer, unassigned) [Example 152]",30 to 500,D (D represents a potency <10 μM),10 to 30,16 to 32,1 to 2,16 to 32,4 to 8,16 to 32,16 to 32,4 to 8
"CCN1CCN(C(=O)N[C@@H](C(=O)N[C@H]2Cc3cccc(C(=O)O)c3OB2O)c2ccc(C(=O)O)c(Cl)c2)C(=O)C1=O (single isomer, unassigned) [Example 154]",< 30,D (D represents a potency <10 μM),< 10,1 to 2,< 0.125,1 to 2,0.25 to 0.5,1 to 2,1 to 2,0.25 to 0.5
"CCN1CCN(C(=O)N[C@H](C(=O)N[C@H]2Cc3cccc(C(=O)O)c3OB2O)c2ccc(C(=O)O)c(Cl)c2)C(=O)C1=O (single isomer, unassigned) [Example 155]",< 30,D (D represents a potency <10 μM),< 10,1 to 2,< 0.125,4 to 8,0.25 to 0.5,1 to 2,1 to 2,1 to 2
"NCCN1CCN(C(=O)N[C@@H](C(=O)N[C@H]2Cc3cccc(C(=O)O)c3OB2O)c2cc(F)c(O)c(F)c2)C(=O)C1=O (single isomer, unassigned) [Example 159]",< 30,D (D represents a potency <10 μM),< 10,16 to 32,1 to 2,> 64,4 to 8,> 64,> 64,> 64
"NCCN1CCN(C(=O)N[C@@H](C(=O)N[C@H]2Cc3cccc(C(=O)O)c3OB2O)c2cc(F)c(O)c(F)c2F)C(=O)C1=O (single isomer, unassigned) [Example 168]",< 30,D (D represents a potency <10 μM),< 10,4 to 8,0.25 to 0.5,> 64,1 to 2,16 to 32,16 to 32,16 to 32
"NCCN1CCN(C(=O)N[C@@H](C(=O)N[C@H]2Cc3ccc(F)c(C(=O)O)c3OB2O)c2cc(F)c(O)c(O)c2Cl)C(=O)C1=O (single isomer, unassigned) [Example 179]",< 30,D (D represents a potency <10 μM),> 100,> 64,16 to 32,> 64,16 to 32,> 64,> 64,> 64
"NCCCN1CCN(C(=O)N[C@@H](C(=O)N[C@H]2Cc3ccc(F)c(C(=O)O)c3OB2O)c2cc(F)c(O)c(O)c2Cl)C(=O)C1=O (single isomer, unassigned) [Example 180]",< 30,D (D represents a potency <10 μM),> 100,16 to 32,4 to 8,> 64,16 to 32,> 64,> 64,> 64
"C[C@@H](O)[C@@H](NC(=O)N1CCN(CCNC(=O)c2c(F)cc(O)c(O)c2Cl)C(=O)C1=O)C(=O)N[C@H]1Cc2ccc(F)c(C(=O)O)c2OB1O [Example 102, (R)-3-((2R,3R)-2-(4-(2-(2-chloro-6-fluoro-3,4-dihydroxybenzamido)ethyl)-2,3-dioxopiperazine-1-carboxamido)-3-hydroxybutanamido)-7-fluoro-2-hydroxy-3,4-dihydro-2H-benzo[e][1,2]oxaborinine-8-carboxylic acid]",30 to 500,D (D represents a potency <10 μM),10 to 30,> 64,16 to 32,> 64,16 to 32,> 64,> 64,> 64
"CCN1CCN(C(=O)NC(C(=O)N[C@H]2Cc3cccc(C(=O)O)c3OB2O)c2cccc(C(=O)O)c2)C(=O)C1=O (stereo partly drawn) [Example 113, (3R)-3-(2-(3-carboxyphenyl)-2-(4-ethyl-2,3-dioxopiperazine-1-carboxamido)acetamido)-2-hydroxy-3,4-dihydro-2H-benzo[e][1,2]oxaborinine-8-carboxylic acid]",< 30,D (D represents a potency <10 μM),< 10,4 to 8,0.25 to 0.5,> 64,4 to 8,> 64,16 to 32,16 to 32
"NCCN1CCN(C(=O)NC(C(=O)N[C@H]2Cc3cccc(C(=O)O)c3OB2O)c2c(F)c(F)c(O)c(F)c2F)C(=O)C1=O (stereo partly drawn) [Example 174, (3R)-3-(2-(4-(2-aminoethyl)-2,3-dioxopiperazine-1-carboxamido)-2-(2,3,5,6-tetrafluoro-4-hydroxyphenyl)acetamido)-2-hydroxy-3,4-dihydro-2H-benzo[e][1,2]oxaborinine-8-carboxylic acid]",< 30,D (D represents a potency <10 μM),< 10,4 to 8,0.25 to 0.5,> 64,1 to 2,> 64,16 to 32,16 to 32

# Source: US20230114728A1 (Venatorx Pharmaceuticals, Inc., priority 2019, published 2023)
